Where two headings read alike, the source gives them in different places.
Experiments:
[1] = test system: platelet factor-4 (PF-4); test: Thrombus formation by PF-4 real-time PCR, FeCl3 induced venous thrombosis model vs warfarin (Example 11); format: in vivo, BALB/c mice; conditions: for PF-4 in vena cava, percentage as compared to PBS controls (thrombus formation): + FeCl3
Experimental: Two control groups of BALB/c mice were treated with PBS, administered subcutaneously twice a week for 3 weeks. Two days after the last dose of PBS, mice in both groups were anesthetized with 150 mg/kg ketamine mixed with 10 mg/kg xylazine administered by intraperitoneal injection. Thrombus formation was induced with FeCl3 in all groups of mice except the first control group.
In mice undergoing FeCl3 treatment, thrombus formation was induced by applying a piece of filter paper (2×4 mm) pre-saturated with 10% FeCl3 solution directly on the vena cava. After 3 minutes of exposure, the filter paper was removed. Thirty minutes after the filter paper application, a fixed length of the vein containing the thrombus was dissected out for platelet analysis. Liver was collected for RNA analysis.
Real-time PCR quantification of platelet factor-4 (PF-4) was used to quantify platelets in the vena cava as a measure of thrombus formation.

[2] = Tail bleeding assay vs warfarin (Example 12); conditions: mouse, in vivo; for Blood (tail bleeding, collected over 40 minutes): sc
Experimental: A separate control group of BALB/c mice was treated with PBS, administered subcutaneously twice a week for 3 weeks.
Mice were anesthetized in the chamber with isoflurane and a small piece of tail (approximately 4 mm from the tip) was cut with sterile scissors. The tail cut was immediately placed in a 15 mL Falcon tube filled with approximately 10 mL of 0.9% NaCl buffer solution warmed to 37° C. The blood was collected over the course of 40 minutes. The saline filled tubes were weighed both before and after bleeding.

[3] = test system: blood coagulation; test: PT and aPTT vs warfarin (Example 13); format: in vivo, BALB/c mice; conditions: for PT INR / aPTT INR: PPP two days after final dose
Experimental: In a control group, BALB/c mice were treated with PBS, administered subcutaneously mice twice a week for 3 weeks.
Two days after the final dose was administered, PPP was collected and PT and aPTT assays were performed.
PT and aPTT values provided in Table 16 are reported as International Normalized Ratio (INR) values. […] This ratio was then raised to the power of the International Sensitivity Index (ISI) of the tissue factor used.

[4] = parameters: species or system BALB/c mice; conditions: mouse, in vivo; for Blood (tail bleeding, collected over 40 minutes): sc
Experimental: ISIS 404071 and Apixaban were evaluated in the tail bleeding model.
The saline filled tubes were weighed before and after bleeding.

[5] = test system: blood coagulation; test: PT and aPTT, combination with warfarin (Example 21); format: in vivo, BALB/c mice
Experimental: Plasma was collected from each group 5 days after the last dose was administered. […] In a final group of BALB/c mice, PBS was administered subcutaneously twice a week for three weeks, as a control. Plasma was collected 5 days after the last PBS treatment.
PT and aPTT values provided in Table 33 are reported as International Normalized Ratio (INR) values.

[6] = Tail bleeding assay, combination with PLAVIX (Example 27); format: in vivo, BALB/c mice; conditions: ISIS 404071 20 mg/kg, PLAVIX 0
Experimental: ISIS 404071 was administered subcutaneously at a dosage of 20 mg/kg twice a week for 3 weeks to 5 groups of eight BALB/c mice. After the last dose of ISIS 404071, mice were treated with 0 mg/kg, 6.25 mg/kg, 12.50 mg/kg, 25.00 mg/kg, or 50.00 mg/kg of PLAVIX. Two doses of PLAVIX were administered to the mice on day one and one dose of PLAVIX was administered on day two, two hours before bleeding.
Two hours after receiving their final treatment, mice were placed in a tail bleeding chamber. […] The blood was collected for the course of 40 minutes.

[7] = test system: blood coagulation; test: Time course of aPTT after one dose (Example 29); format: in vivo, BALB/c mice; conditions: for aPTT INR: values approximate
Experimental: One dose of 50 mg/kg ISIS 404071 was administered subcutaneously to BALB/c mice. Following ISIS 404071 administration, mice were sacrificed at 12 hours, 1 day, 2 days, 3 days, 4 days, 7 days, 14 days, 28 days, and 56 days. Whole liver was collected for RNA analysis and PPP was collected for aPTT analysis. A control group of mice was treated with one subcutaneous dose of PBS.
aPTT values provided in Table 43 are reported as International Normalized Ratio (INR) values. INR values for aPTT were determined by dividing the aPTT value for ISIS 404071 treated mice by the aPTT for the PBS treated group. This ratio was then raised to the power of the International Sensitivity Index (ISI) of the tissue factor used.

[8] = ISIS 404071 1.25 mg/kg subcutaneously twice a week for 3 weeks
[9] = ISIS 404071 5 mg/kg subcutaneously twice a week for 3 weeks
[10] = ISIS 404071 10 mg/kg subcutaneously twice a week for 3 weeks
[11] = ISIS 404071 20 mg/kg subcutaneously twice a week for 3 weeks
[12] = ISIS 404071 40 mg/kg subcutaneously twice a week for 3 weeks
[13] = BALB/c mice, ISIS 404071 1.25-40 mg/kg, warfarin 0.5-5 mg/kg
[14] = BALB/c mice, ISIS 404071 25 or 50 mg/kg, warfarin 2 mg/kg
[15] = ISIS 404071 25 mg/kg s.c. twice a week for 3 weeks
[16] = ISIS 404071 50 mg/kg s.c. twice a week for 3 weeks

ISIS 404071: antisense oligonucleotide targeted to murine Factor 11 mRNA, TGGTAATCCACTTTCAGAGG, target start site 869 (chemistry not given here)
PF-4 in vena cava as measure of thrombus formation ([1]; FeCl3 induced VT model, vs PBS control): dose-dependent reduction of PF-4 in comparison to the PBS control for dosages of 5 mg/kg and higher
PF-4 in vena cava, percentage as compared to PBS controls (thrombus formation) [1, 8]: 143%
PF-4 in vena cava, percentage as compared to PBS controls (thrombus formation) [1, 9]: 95%
PF-4 in vena cava, percentage as compared to PBS controls (thrombus formation) [1, 10]: 21%
PF-4 in vena cava, percentage as compared to PBS controls (thrombus formation) [1, 11]: 37%
PF-4 in vena cava, percentage as compared to PBS controls (thrombus formation) [1, 12]: 20%
bleeding in tail bleeding assay [2]: did not affect bleeding
Blood (tail bleeding, collected over 40 minutes) ([2]; 1.25 mg/kg): 0.00 g
Blood (tail bleeding, collected over 40 minutes) ([2]; 5 mg/kg): 0.03 g
Blood (tail bleeding, collected over 40 minutes) ([2]; 10 mg/kg): 0.00 g
Blood (tail bleeding, collected over 40 minutes) ([2]; 20 mg/kg): 0.06 g
Blood (tail bleeding, collected over 40 minutes) ([2]; 40 mg/kg): 0.03 g
PT [3, 13]: did not significantly affect PT
aPTT [3, 13]: did prolong aPTT
PT INR [3, 8]: 0.99 INR
aPTT INR [3, 8]: 0.98 INR
PT INR [3, 9]: 1.07 INR
aPTT INR [3, 9]: 1.09 INR
PT INR [3, 10]: 1.08 INR
aPTT INR [3, 10]: 1.29 INR
PT INR [3, 11]: 1.09 INR
aPTT INR [3, 11]: 1.32 INR
PT INR [3, 12]: 0.98 INR
aPTT INR [3, 12]: 1.64 INR
bleeding in tail bleeding assay [4]: did not affect bleeding
Blood (tail bleeding, collected over 40 minutes) ([4]; 1.25 mg/kg): 0.00 g
Blood (tail bleeding, collected over 40 minutes) ([4]; 5 mg/kg): 0.00 g
Blood (tail bleeding, collected over 40 minutes) ([4]; 10 mg/kg): 0.04 g
Blood (tail bleeding, collected over 40 minutes) ([4]; 25 mg/kg): 0.01 g
Blood (tail bleeding, collected over 40 minutes) ([4]; 50 mg/kg): 0.01 g
PT [5, 14]: not affected
aPTT [5, 14]: affected
PT INR [5, 15]: 0.98 INR
aPTT INR [5, 15]: 1.37 INR
PT INR [5, 16]: 0.93 INR
aPTT INR [5, 16]: 1.49 INR
Blood (tail bleeding, collected for 40 minutes) [6]: 0 g
aPTT over time ([7]; BALB/c mice, one s.c. dose of 50 mg/kg): progressive decrease of aPTT until day 4 and then progressive increase to pre-treatment levels from day 7 to day 28
aPTT INR ([7]; day 1 after one dose of 50 mg/kg s.c.): ~1.02 INR
aPTT INR ([7]; day 2 after one dose of 50 mg/kg s.c.): ~1.12 INR
aPTT INR ([7]; day 3 after one dose of 50 mg/kg s.c.): ~1.29 INR
aPTT INR ([7]; day 4 after one dose of 50 mg/kg s.c.): ~1.30 INR
aPTT INR ([7]; day 7 after one dose of 50 mg/kg s.c.): ~1.25 INR
aPTT INR ([7]; day 14 after one dose of 50 mg/kg s.c.): ~1.11 INR
aPTT INR ([7]; day 28 after one dose of 50 mg/kg s.c.): ~1.02 INR

— patent US20230263822A1, “MODULATION OF FACTOR 11 EXPRESSION” (Ionis Pharmaceuticals, Inc., priority 2008, published 2023)
